According to patent US12577234B2, “Antagonists of the muscarinic acetylcholine receptor M4” (Vanderbilt University, priority 2017, dated 2026):

Biological target: T1, human mAChR M4 (Homo sapiens, UniProt P08173)
T1 construct: expressed in transfected cells; host or cells: CHO-K1 (ATCC), stably co-expressing chimeric G protein Gqi5
T1 sequence (P08173 1-479): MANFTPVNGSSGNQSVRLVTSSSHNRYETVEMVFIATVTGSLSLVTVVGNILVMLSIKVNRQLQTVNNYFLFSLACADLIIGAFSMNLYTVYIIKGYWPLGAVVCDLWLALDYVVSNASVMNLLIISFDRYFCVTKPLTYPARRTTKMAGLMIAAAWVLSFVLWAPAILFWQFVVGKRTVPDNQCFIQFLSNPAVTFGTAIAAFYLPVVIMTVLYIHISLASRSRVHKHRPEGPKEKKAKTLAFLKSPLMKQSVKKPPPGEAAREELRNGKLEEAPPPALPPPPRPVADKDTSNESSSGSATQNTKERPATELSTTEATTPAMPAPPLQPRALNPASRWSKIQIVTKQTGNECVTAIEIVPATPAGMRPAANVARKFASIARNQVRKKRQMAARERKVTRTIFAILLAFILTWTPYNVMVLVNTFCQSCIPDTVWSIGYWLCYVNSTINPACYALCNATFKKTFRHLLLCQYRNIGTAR
Assay: mAChR M4 cell-based functional assay (calcium mobilization, EC80 acetylcholine), human M4
Conditions: for IC50: M4/Gqi5/CHO-K1 cells, decrease of EC80 acetylcholine response; for Emin: human M4, % ACh maximum at 30 μM
Outline: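 CHO-K1 cells stably expressing human M4 with chimeric Gqi5; intracellular calcium rise read on FDSS as fluorescence static ratio at 1 Hz. Compounds in 10-point 1:3 dilution series; IC50 taken as concentration-dependent decrease of the EC80 acetylcholine response, four-parameter logistic fit.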

| IC50 (Table 9) [nM] | Emin (Table 9) [%] | Human M4 Emin (Table 10) [%] | IC50 (Table 10) [nM] | Compound |
| --- | --- | --- | --- | --- |
| 443 | 3.62 | – | – | Fc1ccc(Cl)c(-c2ccc(OCC3C[C@@H]4CN(CC5CCCCC5)C[C@@H]4C3)nn2)c1 (stereo partly drawn) [Compound 111, (3aR,6aS)-5-[[6-(2-chloro-5-fluoro-phenyl)pyridazin-3-yl]oxymethyl]-2-(cyclohexylmethyl)-3,3a,4,5,6,6a-hexahydro-1H-cyclopenta[c]pyrrole] |
| 134 | 3.90 | – | – | Fc1ccc(Cl)c(-c2ccc(OCC3C[C@@H]4CN(CC5CC6C=CC5C6)C[C@@H]4C3)nn2)c1 (stereo partly drawn) [Compound 108, (3aR,6aS)-2-(5-bicyclo[2.2.1]hept-2-enylmethyl)-5-[[6-(2-chloro-5-fluoro-phenyl)pyridazin-3-yl]oxymethyl]-3,3a,4,5,6,6a-hexahydro-1H-cyclopenta[c]pyrrole] |
| – | – | 2 | 11.5 | COc1ccc(CN2C[C@H]3C[C@H](Nc4ccc(-c5cc(F)ccc5Cl)nn4)C[C@H]3C2)cc1 [Compound 168, (3aR,5s,6aS)-N-[6-(2-chloro-5-fluoro-phenyl)pyridazin-3-yl]-2-[(4-methoxyphenyl)methyl]-3,3a,4,5,6,6a-hexahydro-1H-cyclopenta[c]pyrrol-5-amine] |
| 364 | 3.81 | – | – | Fc1ccc(Cl)c(-c2ccc(NC[C@H]3C[C@@H]4CN(CC5CCOCC5)C[C@@H]4C3)nn2)c1 [Compound 71, N-[[(3aR,5s,6aS)-2-(tetrahydropyran-4-ylmethyl)-3,3a,4,5,6,6a-hexahydro-1H-cyclopenta[c]pyrrol-5-yl]methyl]-6-(2-chloro-5-fluoro-phenyl)pyridazin-3-amine] |
| 694 | 2.25 | – | – | Cc1cccnc1CN1C[C@H]2CC(COc3ccc(-c4cc(F)ccc4Cl)nn3)C[C@H]2C1 (stereo partly drawn) [Compound 118, (3aR,6aS)-5-[[6-(2-chloro-5-fluoro-phenyl)pyridazin-3-yl]oxymethyl]-2-[(3-methyl-2-pyridyl)methyl]-3,3a,4,5,6,6a-hexahydro-1H-cyclopenta[c]pyrrole] |
| 1130 | 4.08 | – | – | Cc1nn(C)cc1-c1ccc(O[C@@H]2C[C@@H]3CN(CC(C)C(C)(C)C)C[C@@H]3C2)nn1 (stereo partly drawn) [Compound 46, (3aR,5r,6aS)-5-[6-(1,3-Dimethylpyrazol-4-yl)pyridazin-3-yl]oxy-2-(2,3,3-trimethylbutyl)-3,3a,4,5,6,6a-hexahydro-1H-cyclopenta[c]pyrrole] |
| 222 | 3.07 | – | – | CC(C)(C)CCN1C[C@H]2C[C@@H](Oc3ccc(-c4cc(F)ccc4Cl)nn3)C[C@H]2C1 [Compound 54, (3aR,5r,6aS)-5-[6-(2-chloro-5-fluoro-phenyl)pyridazin-3-yl]oxy-2-(3,3-dimethylbutyl)-3,3a,4,5,6,6a-hexahydro-1H-cyclopenta[c]pyrrole] |
| 2580 | 6.62 | – | – | Cc1nn(C)cc1-c1ccc(OCC2C[C@@H]3CN(Cc4ccc(F)cc4)C[C@@H]3C2)nn1 (stereo partly drawn) [Compound 102, (3aR,6aS)-5-[[6-(1,3-dimethylpyrazol-4-yl)pyridazin-3-yl]oxymethyl]-2-[(4-fluorophenyl)methyl]-3,3a,4,5,6,6a-hexahydro-1H-cyclopenta[c]pyrrole] |
| 5660 | 9.93 | – | – | Fc1ccc(Cl)c(-c2ccc(OCC3C[C@@H]4CN(Cc5ccccc5F)C[C@@H]4C3)nn2)c1 (stereo partly drawn) [Compound 115, (3aR,6aS)-5-[[6-(2-chloro-5-fluoro-phenyl)pyridazin-3-yl]oxymethyl]-2-[(2-fluorophenyl)methyl]-3,3a,4,5,6,6a-hexahydro-1H-cyclopenta[c]pyrrole] |
| – | – | 3 | 26.1 | Fc1ccc(Cl)c(-c2ccc(N[C@H]3C[C@@H]4CN(Cc5ccco5)C[C@@H]4C3)nn2)c1 [Compound 176, (3aR,5s,6aS)-N-[6-(2-chloro-5-fluoro-phenyl)pyridazin-3-yl]-2-(2-furylmethyl)-3,3a,4,5,6,6a-hexahydro-1H-cyclopenta[c]pyrrol-5-amine] |
| 609 | 4.59 | – | – | Fc1ccc(Cl)c(-c2ccc(OCC3C[C@@H]4CN(CC5CCOCC5)C[C@@H]4C3)nn2)c1 (stereo partly drawn) [Compound 112, (3aR,6aS)-5-[[6-(2-chloro-5-fluoro-phenyl)pyridazin-3-yl]oxymethyl]-2-(tetrahydropyran-4-ylmethyl)-3,3a,4,5,6,6a-hexahydro-1H-cyclopenta[c]pyrrole] |

The remaining lines, values behind:

| Compound | IC50 (Table 9) [nM] | Emin (Table 9) [%] | Human M4 Emin (Table 10) [%] | IC50 (Table 10) [nM] |
| --- | --- | --- | --- | --- |
| CCC(C)CN1C[C@H]2C[C@H](Nc3ccc(-c4c(C)cnn4C)nn3)C[C@H]2C1 (stereo partly drawn) [Compound 18, (3aR,5s,6aS)-N-[6-(2,4-dimethylpyrazol-3-yl)pyridazin-3-yl]-2-(2-methylbutyl)-3,3a,4,5,6,6a-hexahydro-1H-cyclopenta[c]pyrrol-5-amine] | 90.2 | 2.90 | – | – |
| Fc1cnc(Cl)c(-c2ccc(N[C@H]3C[C@@H]4CN(CC5CCOCC5)C[C@@H]4C3)nn2)c1 [Compound 220, (3aR,5s,6aS)-N-[6-(2-chloro-5-fluoro-3-pyridyl)pyridazin-3-yl]-2-(tetrahydropyran-4-ylmethyl)-3,3a,4,5,6,6a-hexahydro-1H-cyclopenta[c]pyrrol-5-amine] | – | – | 4 | 0.399 |
| FC(F)(F)Oc1ccc(-c2ccc(N[C@H]3C[C@@H]4CN(CC5CCOCC5)C[C@@H]4C3)nn2)cc1 [Compound 184, (3aR,5s,6aS)-2-(tetrahydropyran-4-ylmethyl)-N-[6-[4-(trifluoromethoxy)phenyl]pyridazin-3-yl]-3,3a,4,5,6,6a-hexahydro-1H-cyclopenta[c]pyrrol-5-amine] | – | – | 5 | 56.7 |
| Cc1cnn(C)c1-c1ccc(OCC2C[C@@H]3CN(Cc4ccc5c(c4)OCO5)C[C@@H]3C2)nn1 (stereo partly drawn) [Compound 91, (3aR,6aS)-2-(1,3-benzodioxol-5-ylmethyl)-5-[[6-(2,4-dimethylpyrazol-3-yl)pyridazin-3-yl]oxymethyl]-3,3a,4,5,6,6a-hexahydro-1H-cyclopenta[c]pyrrole] | 371 | 4.18 | – | – |
| Fc1ccc(Cl)c(-c2ccc(N[C@H]3C[C@@H]4CN(CC5CCCCC5)C[C@@H]4C3)nn2)c1 [Compound 31, (3aR,5s,6aS)-N-[6-(2-chloro-5-fluoro-phenyl)pyridazin-3-yl]-2-(cyclohexylmethyl)-3,3a,4,5,6,6a-hexahydro-1H-cyclopenta[c]pyrrol-5-amine] | 8.6 | 4.96 | – | – |
| Cc1nn(C)cc1-c1cnc(N[C@H]2C[C@@H]3CN(CC45CC6CC(CC(C6)C4)C5)C[C@@H]3C2)cn1 [Compound 155, (3aR,5s6aS)-2-(1-adamantylmethyl)-N-[5-(1,3-dimethylpyrazol-4-yl)pyrazin-2-yl]-3,3a,4,5,6,6a-hexahydro-1H-cyclopenta[c]pyrrol-5-amine] | – | – | 4 | 15.9 |
| N#Cc1ccc(F)cc1-c1ccc(N[C@H]2C[C@@H]3CN(CC4CCOCC4)C[C@@H]3C2)nn1 [Compound 213, 2-[6-[[(3aR,5s,6aS)-2-(tetrahydropyran-4-ylmethyl)-3,3a,4,5,6,6a-hexahydro-1H-cyclopenta[c]pyrrol-5-yl]amino]pyridazin-3-yl]-4-fluoro-benzonitrile] | – | – | 16 | 11.8 |
| Cc1nn(C)cc1-c1ccc(OCC2C[C@@H]3CN(CC4CCCCC4)C[C@@H]3C2)nn1 (stereo partly drawn) [Compound 97, (3aR,6aS)-2-(cyclohexylmethyl)-5-[[6-(1,3-dimethylpyrazol-4-yl)pyridazin-3-yl]oxymethyl]-3,3a,4,5,6,6a-hexahydro-1H-cyclopenta[c]pyrrole] | 167 | 4.44 | – | – |
| Cc1nn(C)cc1-c1ccc(N[C@H]2C[C@@H]3CN(CC45CC6CC(CC(C6)C4)C5)C[C@@H]3C2)nn1 [Compound 37, (3aR,5s,6aS)-2-(1-adamantylmethyl)-N-[6-(1,3-dimethylpyrazol-4-yl)pyridazin-3-yl]-3,3a,4,5,6,6a-hexahydro-1H-cyclopenta[c]pyrrol-5-amine] | 25.8 | 5.65 | – | – |
| Cc1cnn(C)c1-c1ccc(NCCC2C[C@@H]3CN(CC4CCOCC4)C[C@@H]3C2)nn1 (stereo partly drawn) [Compound 125, N-[2-[(3aR,6aS)-2-(tetrahydropyran-4-ylmethyl)-3,3a,4,5,6,6a-hexahydro-1H-cyclopenta[c]pyrrol-5-yl]ethyl]-6-(2,4-dimethylpyrazol-3-yl)pyridazin-3-amine] | 28.7 | 4.41 | – | – |
| Fc1ccc(F)c(-c2ccc(N[C@H]3C[C@@H]4CN(CC5CCOCC5)C[C@@H]4C3)nn2)c1 [Compound 215, (3aR,5s,6aS)-N-[6-(2,5-difluorophenyl)pyridazin-3-yl]-2-(tetrahydropyran-4-ylmethyl)-3,3a,4,5,6,6a-hexahydro-1H-cyclopenta[c]pyrrol-5-amine] | – | – | 6 | 1.4 |
| Cc1nn(C)cc1-c1ccc(O[C@@H]2C[C@@H]3CN(CC4CCCOC4)C[C@@H]3C2)nn1 (stereo partly drawn) [Compound 51, (3aR,5r,6aS)-5-[6-(1,3-dimethylpyrazol-4-yl)pyridazin-3-yl]oxy-2-(tetrahydropyran-3-ylmethyl)-3,3a,4,5,6,6a-hexahydro-1H-cyclopenta[c]pyrrole] | 7850 | 19.8 | – | – |
